Ki, IC50 and melting point data for 16 molecules are collected here from patent US6916806B2, “Medicinal composition containing 1,3-thiazine derivative” (priority 2001, dated 2005).

The structures appear in SMILES notation. A value given as a limit tells only on which side of the number the result lay.

Data set [1] concerns the target T1, human CB2 receptor (CB2R) (Homo sapiens, UniProt P34972).
T1 construct: The coding region of human CB2R cDNA (Munro etc, Nature, 1993, 365, 61-65) was inserted; expressed in transfected cells
In words: Human CB2 receptor (CB2R) binding inhibition, [3H]CP55940, membranes of CB2R-expressing CHO cells. The method, then:
(§1) The coding region of human CB2R cDNA (Munro etc, Nature, 1993, 365, 61-65) was inserted into the mammalian expression vector, pSVL SV40 Late Promoter Expression Vector (Amersham Pharmacia Biotech Inc.). The prepared vector was transfected into Chinese Hamster Ovary (CHO) cells with LipofectAMINE reagent (Gibco BRL) according to the manufacture's protocol, and the stable CB2R-expressing clones were selected.
(§2) The crude membrane fractions were prepared from the CB2R-expressing CHO cells. Receptor binding assay was performed by incubating the membranes with each test compound and [^3H]CP55940 (at a final concentration of 0.5 nM: NEN Life Science Products) in the assay buffer (50 mM Tris-HCl, 1 mM EDTA, 3 mM MgCl2, pH 7.4) containing 0.5% bovine serum albumin (BSA) for 2 h at 25° C. The incubation mixture was filtered through 1% polyethylenimine-treated GF/C glass filter and washed with 50 mM Tris-HCl (pH 7.4) containing 0.1% BSA. The radioactivity was then counted with a liquid scintillation counter.
(§3) For the receptor binding assay of human CB1 receptor (CB1R), the stable CB1R-expressing CHO cells were prepared as described above, and the binding assay was performed using their membrane fractions. As a consequence of these studies, the Ki values of each test compound for both cannabinoid receptors were determined, which were presented in Table.

Data set [2] addresses T2, human CB1 receptor (CB1R) (Homo sapiens, UniProt P21554).
T2 construct: expressed in transfected cells
The data set can be described thus: Receptor binding assay of human CB1 receptor (CB1R), membranes of CB1R-expressing CHO cells. The method, then:
as §1, §2, §3

A further data set addresses T3, human CB2R (Homo sapiens, UniProt P34972).
T3 construct: The coding region of human CB2R cDNA (Munro etc, Nature, 1993, 365, 61-65) was inserted; expressed in transfected cells
The data set can be described thus: CB2R-mediated suppression of forskolin-stimulated cAMP synthesis in CHO cells expressing human CB2R. It is filed as cell-based. The method, then:
The CHO cells expressing human CB2R were incubated with test compounds for 15 min. After the incubation, forskolin (final concentration of 4 μM, Sigma) was added and the cells were incubated for 20 min at 37° C. The reaction was stopped by the addition of 1N HCl and the amount of cAMP in the cell supernatant was measured using an EIA kit (Amersham Pharmacia Biotech) according to the manufacture's protocol.
The antagonistic activity of each compound was also evaluated in this assay.

Usually Ki stands for the dissociation constant of the complex between target and ligand, obtained from inhibition or displacement. A high value points to weaker binding. The IC50 is the point on the concentration scale where inhibition reaches its midpoint. Usually melting point stands for the temperature of the solid-liquid transition.

T3 sequence (P34972 whole entry): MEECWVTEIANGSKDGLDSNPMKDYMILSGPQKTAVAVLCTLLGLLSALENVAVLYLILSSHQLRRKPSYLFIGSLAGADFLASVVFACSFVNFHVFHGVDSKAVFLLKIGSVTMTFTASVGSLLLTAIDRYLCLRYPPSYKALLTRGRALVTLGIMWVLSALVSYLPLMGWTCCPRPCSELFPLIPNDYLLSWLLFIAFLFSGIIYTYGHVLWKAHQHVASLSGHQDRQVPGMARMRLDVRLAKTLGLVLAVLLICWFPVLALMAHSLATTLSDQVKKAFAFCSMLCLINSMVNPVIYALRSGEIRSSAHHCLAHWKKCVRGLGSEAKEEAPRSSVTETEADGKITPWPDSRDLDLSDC
T1 sequence (P34972 whole entry): as above
T2 sequence (P21554 whole entry): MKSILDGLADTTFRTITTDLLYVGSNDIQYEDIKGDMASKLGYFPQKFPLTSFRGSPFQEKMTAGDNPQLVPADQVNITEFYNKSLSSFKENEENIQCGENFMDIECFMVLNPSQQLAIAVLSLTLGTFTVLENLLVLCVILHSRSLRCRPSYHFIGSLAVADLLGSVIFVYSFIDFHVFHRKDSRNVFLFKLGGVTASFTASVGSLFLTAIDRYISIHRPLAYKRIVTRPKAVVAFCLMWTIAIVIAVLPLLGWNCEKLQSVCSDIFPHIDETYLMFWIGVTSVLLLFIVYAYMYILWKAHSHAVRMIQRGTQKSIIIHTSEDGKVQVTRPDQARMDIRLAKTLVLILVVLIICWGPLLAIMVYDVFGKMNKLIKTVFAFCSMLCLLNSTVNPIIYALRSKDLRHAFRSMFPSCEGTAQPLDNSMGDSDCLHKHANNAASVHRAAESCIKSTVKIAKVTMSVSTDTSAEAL

Take `C=CCSC(=S)N1CC(CC)(CC)CSC1=Nc1ccccc1C(C)C` [Compound I-39]: the Ki in data set [1] amounted to 2 nM; in data set [2], 906 nM. Besides, the IC50 at human CB2R is 13.7 nM.
As to `CCC1(CC)CSC(=Nc2ccccc2C(C)C)N(C(=S)SCC=C(C)C)C1` [Compound I-45], the results for the Ki in data set [1] and in data set [2] were 1.2 nM and 386 nM, respectively.
With `C=CCSC(=S)N1CC2(CCOCC2)CSC1=Nc1ccccc1C(C)C` [Compound I-92], the melting point is 73.5 to 75 °C. Further, in data set [1], the affinity, expressed as Ki, was 6 nM. The molecule further had an inhibitory constant (Ki) in data set [2] of 1310 nM. The IC50 against human CB2R is less than 0.2 nM.
For the molecule `CC(C)c1ccccc1N=C1SCC(C)(C)CN1C(=S)SCC(=O)OC(C)(C)C` [Compound I-14], the Ki in data set [1] was 2 nM; in data set [2] it was more than 5000 nM.
Turning to `COc1ccccc1N=C1SCC2(CCCC2)CN1C(=S)SCC(=O)OC(C)(C)C` [Compound I-80], the Ki in data set [1] was 2.2 nM; in data set [2] it was more than 5000 nM.
The matching figures for `CCC1(CC)CSC(=Nc2ccccc2C(C)C)N(C(=S)SCC(=O)OC(C)(C)C)C1` [Compound I-42]: 0.3 nM and more than 5000 nM.
As for `C=CCSC(=S)N1CC(CC)(CC)CSC1=Nc1ccccc1C(C)CC` (stereo not drawn) [Compound I-49], the Ki in data set [1] was 2.9 nM; in data set [2], 1120 nM. In addition, on human CB2R, the IC50 turned out to be 2.2 nM.
`CCC1(CC)CSC(=Nc2ccccc2C(C)C)N(C(=S)SCC(=O)OC(C)C)C1` [Compound I-41] returned a Ki in data set [1] of 1 nM.
On to `C=CCCSC(=S)N1CC(CC)(CC)CSC1=Nc1ccccc1C(C)C` [Compound I-46], for which the Ki amounted to 2 nM in data set [1] and 3230 nM in data set [2]. At human CB2R, the IC50 was 5.4 nM.
With `CC=CCSC(=S)N1CC(CC)(CC)CSC1=Nc1ccccc1C(C)C` [Compound I-44], the Ki in data set [1] came to 1.1 nM; in data set [2] it was 321 nM.
In data set [1], `CCOC(=O)CSC(=S)N1CC(CC)(CC)CSC1=Nc1ccccc1C(C)C` [Compound I-40] gave an inhibitory constant (Ki) of 0.5 nM.
The molecule `CSC(=S)N1CC2(CCOCC2)CSC1=Nc1ccccc1C(C)C` [Compound I-93] returned a melting point of 127 to 128 °C. The molecule further had a Ki in data set [1] of 3 nM. The molecule also showed a Ki in data set [2] of 1540 nM. In addition, the IC50 at human CB2R came to 0.6 nM.
Turning to `C=CCSC(=S)N1CC2(CCCCC2)CSC1=Nc1ccc(CC)cc1` [Compound I-88], the melting point lay within 98 to 100 °C.
As for `Cc1cc(CSC(=S)N2CC3(CCCC3)CSC2=Nc2ccccc2C(C)C)on1` [Compound I-78], the Ki in data set [2] was found to be 1020 nM.
With `CC(C)OC(=O)CSC(=S)N1CC(C)(C)CSC1=Nc1ccccc1C(C)C` [Compound I-13], the melting point was in the range of 95 to 96 °C. Moreover, the affinity in data set [1], expressed as Ki, was 6 nM.
Take `C=CCSC(=S)N1CC2(CCCC2)CSC1=Nc1ccccc1C(C)C` [Compound I-74]: the figures for the Ki in data set [1] and in data set [2] were 1.2 nM and 704 nM, respectively. The same molecule had a half-inhibitory concentration (IC50) against human CB2R of 1.6 nM.
